Measurements: the supplement of paper PMC10307832

What was measured:
Test in all cases: relative viability (nuclei count vs DMSO), 5 days (fraction); higher = more cells survive
[1] = compound: CCC1=CN=CN=C1N2CCN(CC2)CC3=NC4=C(N3)C=C(C=C4)C(F)(F)F + CS(=O)(=O)N1CCN(Cc2cc3nc(-c4cccc5[nH]ncc45)nc(N4CCOCC4)c3s2)CC1 [Pictilisib] (partner 1 µM)
How it was run: (§1)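 For relative viability, nuclei counts in treated wells were divided by those in vehicle wells. Lung cancer cell lines had been pin-tool dosed in 1536-well plates the day after seeding and cultured for 5 days, then fixed and stained in one step (final 0.05% Triton X-100, 1% formaldehyde, 1 ug/ml Hoechst) and imaged at 4×. Doses were one drug alone or a fixed anchor-drug dose plus five library-drug doses (not always all listed) in √10 steps, and values are duplicate-plate medians.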

[2] = compound: CCn1c(-c2nonc2N)nc2cnc(Oc3cccc(NC(=O)c4ccc(OCCN5CCOCC5)cc4)c3)cc21 + CC(=O)Nc1cccc(-n2c(=O)n(C3CC3)c(=O)c3c(Nc4ccc(I)cc4F)n(C)c(=O)c(C)c32)c1 [Trametinib] (partner 0.02 µM)
How it was run: as §1

[3] = compound: CCn1c(-c2nonc2N)nc2cnc(Oc3cccc(NC(=O)c4ccc(OCCN5CCOCC5)cc4)c3)cc21 + CS(=O)(=O)N1CCN(Cc2cc3nc(-c4cccc5[nH]ncc45)nc(N4CCOCC4)c3s2)CC1 [Pictilisib] (partner 1 µM)
How it was run: as §1

Mirin + Tozasertib = compound: N=C1NC(=O)/C(=C/c2ccc(O)cc2)S1 [Mirin] + Cc1cc(Nc2cc(N3CCN(C)CC3)nc(Sc3ccc(NC(=O)C4CC4)cc3)n2)n[nH]1 [Tozasertib] (partner 0.1 µM)
How it was run: as §1

UMC-11
relative viability ([1]; first compound 0.04 µM): 0.723 | relative viability ([1]; first compound 0.1265 µM): 0.832 | relative viability ([1]; first compound 0.4 µM): 0.706 | relative viability ([1]; first compound 1.265 µM): 0.548 | relative viability ([1]; first compound 4 µM): 0.741 | relative viability ([2]; first compound 0.04 µM): 0.609 | relative viability ([2]; first compound 0.1265 µM): 0.607 | relative viability ([2]; first compound 0.4 µM): 0.298 | relative viability ([2]; first compound 1.265 µM): 0.0887 | relative viability ([2]; first compound 4 µM): 0.963 | relative viability ([3]; first compound 0.04 µM): 0.908 | relative viability ([3]; first compound 0.1265 µM): 0.751 | relative viability ([3]; first compound 0.4 µM): 0.464 | relative viability ([3]; first compound 1.265 µM): 0.241 | relative viability ([3]; first compound 4 µM): 0.188 | relative viability (Mirin + Tozasertib; first compound 0.25 µM): 0.196 | relative viability (Mirin + Tozasertib; first compound 2.5 µM): 0.203 | relative viability (Mirin + Tozasertib; first compound 7.906 µM): 0.181 | relative viability (Mirin + Tozasertib; first compound 25 µM): 0.189
